According to the supplement of paper PMC10307832:

Experiments:
Assay in all cases: relative viability (nuclei count vs DMSO), 5 days (fraction); higher = more cells survive
[1] = test system: LOU-NH91
Procedure, shortened: (§1)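 Relative viability was taken as the ratio of nuclei in treated wells to nuclei in vehicle wells. Lung cancer cell lines in 1536-well plates received compounds by pin tool one day after seeding, either one drug alone or a fixed anchor-drug dose plus five library-drug doses (not always all listed) in √10 steps. Nuclei were counted on 4× images after 5 days of treatment, and values are medians of duplicate plates.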

[2] = test system: NCI-H1793
Procedure, shortened: as §1

[3] = test system: NCI-H1650
Procedure, shortened: as §1

[4] = test system: NCI-H441
Procedure, shortened: as §1

[5] = test system: NCI-H2405
Procedure, shortened: as §1

[6] = test system: NCI-H1993
Procedure, shortened: as §1

[7] = test system: EPLC-272H
Procedure, shortened: as §1

[8] = test system: RERF-LC-KJ
Procedure, shortened: as §1

[9] = test system: NCI-H1734
Procedure, shortened: as §1

[10] = test system: NCI-H520
Procedure, shortened: as §1

[11] = test system: NCI-H2170
Procedure, shortened: as §1

[12] = test system: NCI-H2347
Procedure, shortened: as §1

[13] = test system: 201T
Procedure, shortened: as §1

[14] = test system: NCI-H647
Procedure, shortened: as §1

[15] = test system: NCI-H2023
Procedure, shortened: as §1

[16] = test system: NCI-H3122
Procedure, shortened: as §1

[17] = test system: NCI-H2085
Procedure, shortened: as §1

[18] = test system: PC-14
Procedure, shortened: as §1

[19] = test system: SW 900
Procedure, shortened: as §1

[20] = test system: H3255
Procedure, shortened: as §1

[21] = test system: HCC-44
Procedure, shortened: as §1

[22] = test system: COR-L23
Procedure, shortened: as §1

O=C(O)c1ccc(-c2c[nH]c3ncc(-c4ccccc4)cc23)cc1C1CCCC1 + Cc1cc(Nc2cc(N3CCN(C)CC3)nc(Sc3ccc(NC(=O)C4CC4)cc3)n2)n[nH]1 [Tozasertib] (partner 0.1 µM)
relative viability ([1]; first compound 0.04 µM): 0.584
relative viability ([1]; first compound 0.1265 µM): 0.688
relative viability ([1]; first compound 0.4 µM): 0.616
relative viability ([1]; first compound 1.265 µM): 0.526
relative viability ([2]; first compound 0.04 µM): 0.345
relative viability ([2]; first compound 0.1265 µM): 0.323
relative viability ([2]; first compound 0.4 µM): 0.513
relative viability ([2]; first compound 1.265 µM): 0.266
relative viability ([3]; first compound 0.04 µM): 0.458
relative viability ([3]; first compound 0.1265 µM): 0.388
relative viability ([3]; first compound 0.4 µM): 0.372
relative viability ([3]; first compound 1.265 µM): 0.295
relative viability ([4]; first compound 0.04 µM): 0.71
relative viability ([4]; first compound 0.1265 µM): 0.638
relative viability ([4]; first compound 0.4 µM): 0.548
relative viability ([4]; first compound 1.265 µM): 0.325
relative viability ([5]; first compound 0.04 µM): 0.725
relative viability ([5]; first compound 0.1265 µM): 0.806
relative viability ([5]; first compound 0.4 µM): 0.648
relative viability ([5]; first compound 1.265 µM): 0.583
relative viability ([6]; first compound 0.04 µM): 0.556
relative viability ([6]; first compound 0.1265 µM): 0.604
relative viability ([6]; first compound 0.4 µM): 0.55
relative viability ([6]; first compound 1.265 µM): 0.606
relative viability ([7]; first compound 0.04 µM): 0.295
relative viability ([7]; first compound 0.1265 µM): 0.313
relative viability ([7]; first compound 0.4 µM): 0.274
relative viability ([7]; first compound 1.265 µM): 0.0995
relative viability ([8]; first compound 0.04 µM): 0.531
relative viability ([8]; first compound 0.1265 µM): 0.422
relative viability ([8]; first compound 0.4 µM): 0.407
relative viability ([8]; first compound 1.265 µM): 0.275
relative viability ([9]; first compound 0.04 µM): 0.284
relative viability ([9]; first compound 0.1265 µM): 0.236
relative viability ([9]; first compound 0.4 µM): 0.247
relative viability ([9]; first compound 1.265 µM): 0.258
relative viability ([10]; first compound 0.04 µM): 0.504
relative viability ([10]; first compound 0.1265 µM): 0.408
relative viability ([10]; first compound 0.4 µM): 0.384
relative viability ([10]; first compound 1.265 µM): 0.483
relative viability ([11]; first compound 0.04 µM): 0.721
relative viability ([11]; first compound 0.1265 µM): 0.726
relative viability ([11]; first compound 0.4 µM): 0.679
relative viability ([11]; first compound 1.265 µM): 0.612
relative viability ([12]; first compound 0.04 µM): 0.606
relative viability ([12]; first compound 0.1265 µM): 0.643
relative viability ([12]; first compound 0.4 µM): 0.522
relative viability ([12]; first compound 1.265 µM): 0.5
relative viability ([13]; first compound 0.04 µM): 0.943
relative viability ([13]; first compound 0.1265 µM): 0.973
relative viability ([13]; first compound 0.4 µM): 0.893
relative viability ([13]; first compound 1.265 µM): 0.771
relative viability ([14]; first compound 0.04 µM): 0.223
relative viability ([14]; first compound 0.1265 µM): 0.381
relative viability ([14]; first compound 0.4 µM): 0.337
relative viability ([14]; first compound 1.265 µM): 0.22
relative viability ([15]; first compound 0.04 µM): 0.374
relative viability ([15]; first compound 0.1265 µM): 0.39
relative viability ([15]; first compound 0.4 µM): 0.318
relative viability ([15]; first compound 1.265 µM): 0.242
relative viability ([16]; first compound 0.04 µM): 0.568
relative viability ([16]; first compound 0.1265 µM): 0.45
relative viability ([16]; first compound 0.4 µM): 0.407
relative viability ([16]; first compound 1.265 µM): 0.326
relative viability ([17]; first compound 0.04 µM): 0.772
relative viability ([17]; first compound 0.1265 µM): 0.829
relative viability ([17]; first compound 0.4 µM): 0.598
relative viability ([17]; first compound 1.265 µM): 0.52
relative viability ([18]; first compound 0.04 µM): 0.599
relative viability ([18]; first compound 0.1265 µM): 0.638
relative viability ([18]; first compound 0.4 µM): 0.484
relative viability ([18]; first compound 1.265 µM): 0.508
relative viability ([19]; first compound 0.04 µM): 0.638
relative viability ([19]; first compound 0.1265 µM): 0.585
relative viability ([19]; first compound 0.4 µM): 0.526
relative viability ([19]; first compound 1.265 µM): 0.311
relative viability ([20]; first compound 0.04 µM): 0.524
relative viability ([20]; first compound 0.1265 µM): 0.693
relative viability ([20]; first compound 0.4 µM): 0.618
relative viability ([20]; first compound 1.265 µM): 0.604
relative viability ([21]; first compound 0.04 µM): 1.16
relative viability ([21]; first compound 0.1265 µM): 1.15
relative viability ([21]; first compound 0.4 µM): 0.853
relative viability ([21]; first compound 1.265 µM): 0.616
relative viability ([22]; first compound 0.04 µM): 0.208
relative viability ([22]; first compound 0.1265 µM): 0.177
relative viability ([22]; first compound 0.4 µM): 0.166
relative viability ([22]; first compound 1.265 µM): 0.119
